From patent US8754079B2, “Cycloalkyl containing thienopyrimidines for pharmaceutical compositions” (Boehringer Ingelheim International GmbH, priority 2010, dated 2014)
Several values for one entry are separate records, joined by “and”; a condition that tells them apart may be missing. Equal values may be shown once.

Target: T1, MNK2 (Homo sapiens, UniProt Q9HBH9)
T1 construct: the open reading frames of human Mnk1 and Mnk2a were amplified from cDNA; made in house; host or cells: E. coli BL21
Test: Mnk2a in vitro kinase assay (indirect fluorescence polarization)
Assay type: biochemical
Settings: pre-activated GST-Mnk2a 2.5 nM, 20 μM ATP, 30 μM substrate peptide
Protocol: Inhibitory potency of compounds against Mnk1, Mnk2a and other kinases was assessed with assays based on a format known to those skilled in the art as the indirect (competitive) fluorescence polarization. The assay detection system comprises a small fluorophore-labeled phospho-peptide (termed ligand) bound to a phospho-specific antibody. The product generated by the kinase reaction competes with the ligand for antibody binding. Based on the larger molecular volume of the bound ligand, which results in a lower rotation rate in solution, its emitted light has a higher degree of polarization than the one from the free ligand.
Example 2a. Mnk1 and Mnk2a in vitro kinase assay
As a source of enzyme, human Mnk1 and human Mnk2a were expressed as GST fusion proteins in E. coli, purified to >80% homogeneity by glutathione affinity chromatography and activated in vitro with pre-activated ERK2. In brief, the open reading frames of human Mnk1 and Mnk2a were amplified from cDNA using the forward/reverse primer pairs
(utilized restriction sites underlined), respectively, and cloned into the BamHI and SalI sites of the vector pGEX-4T1 (Amersham, Sweden, cat. no. 27-4580-01). These constructs allow prokaryotic expression of Mnk1 or Mnk2a as fusion protein with a N-terminal glutathione S-transferase (GST) tag, referred to as GST-Mnk1 or GSTMnk2a. The following expression and purification procedure was identical for GSTMnk1 and GST-Mnk2a, referring in general to GST-Mnk, when not distinguishing between the two isoforms. Expression of GST-Mnk was in E. coli BL21 (Merck Biosciences, Germany, cat. no. 69449). Cells were grown in LB-Bouillon (Merck, Germany, cat. no. 1.10285) supplemented with 100 μg/ml ampicillin (Sigma, Germany, cat. no. A9518) at 37° C. When the culture had reached a density corresponding to an A600 of 0.8, an equal volume of ice cold LB/ampicillin was added, the culture transferred to 25° C. and induced for 4 h with 1 mM isopropyl thiogalactoside (IPTG, Roth, Germany, cat. no. 2316.4). Cells harvested by centrifugation were resuspended in 10 ml lysis buffer (50 mM tris(hydroxymethyl)aminomethane hydrochloride (Tris/HCl, Sigma, Germany, cat. no. T5941) pH 7.5, 300 mM sodium chloride (NaCl, Sigma, Germany, cat. no. S7653), 5% (w/v) glycerol (Sigma, Germany, cat. no. G5516), 3 mM DTT dithiotreitol (DTT, Sigma, Germany, cat. no. D9779)) per gram wet weight cell pellet. Lysates were prepared by disruption of cells with a sonifier and subsequent clearing by centrifugation at 38000 g for 45 min at 4° C.
The lysate was applied to a GSTPrep FF 16/10 column (Amersham, Sweden, cat. no. 17-5234-01) equilibrated with lysis buffer. Removal of unbound material was with 3 column volumes (CV) lysis buffer. Elution was with 2 CV of elution buffer (50 mM Tris/HCl pH 7.5, 300 mM NaCl, 5% (w/v) glycerol, 20 mM glutathione (Sigma, Germany, cat. no. G4251)). Peak fractions were pooled and the protein transferred into storage buffer (50 mM Tris/HCl pH 7.5, 200 mM NaCl, 0.1 mM ethylene glycolbis(2-aminoethylether)-N,N,N′,N′-tetraacetic acid (EGTA, Aldrich, Germany, cat. no. 23, 453-2), 1 mM DTT, 10% (w/v) glycerol, 0.5 M sucrose (Sigma, Germany, cat. no. S0389) by gel filtration on a PD10 desalting column (Amersham, Sweden, cat. no. 17-0851-01). Aliquots were shock frozen in liquid nitrogen and stored at −80° C.
Activation of Mnk1 and Mnk2a was at a concentration of 2.5 μM of either purified GST-Mnk1 or GST-Mnk2a by incubation with 150 nM pre-activated NHis-ERK2 (see ERK2 assay for preparation) and 50 μM adenosine triphosphate (ATP, Sigma, cat. no. A2699) in a buffer comprising 20 mM N-(2-hydroxyethyl)piperazine-N′-(2-ethanesulfonic acid) (HEPES, Fluka, Germany, cat. no 54459)/potassium hydroxide (KOH, Roth, Germany, cat. no 6751.1) pH 7.4, 10 mM magnesium chloride (MgCl2, Sigma, Germany, cat. no. M2670), 0.25 mM DTT, 0.05% (w/v) polyoxyethylene 20 stearylether (Brij 78, Sigma, Germany, cat. no. P4019) (HMDB buffer) for 45 min at 30° C. […]

T1 sequence (Q9HBH9 whole entry): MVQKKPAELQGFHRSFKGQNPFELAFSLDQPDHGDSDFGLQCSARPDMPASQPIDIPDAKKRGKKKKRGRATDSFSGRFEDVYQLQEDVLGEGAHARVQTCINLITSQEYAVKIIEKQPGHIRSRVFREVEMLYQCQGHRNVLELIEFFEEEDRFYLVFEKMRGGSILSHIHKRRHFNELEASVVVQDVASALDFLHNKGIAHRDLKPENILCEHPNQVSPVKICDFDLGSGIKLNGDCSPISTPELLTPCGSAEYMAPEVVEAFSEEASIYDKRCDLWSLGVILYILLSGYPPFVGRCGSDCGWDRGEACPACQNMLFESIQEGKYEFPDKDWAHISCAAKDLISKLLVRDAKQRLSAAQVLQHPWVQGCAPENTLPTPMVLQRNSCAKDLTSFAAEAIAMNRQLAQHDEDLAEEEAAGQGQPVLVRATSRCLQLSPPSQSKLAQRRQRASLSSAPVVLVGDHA

| IC50 | Molecule |
| --- | --- |
| 25 nM | CCNC(=O)c1sc2ncnc(Nc3ccc(F)cc3O[C@@H]3CCC[C@@H](O)C3)c2c1C (racemic) [Example 78] |
| 4 nM | CC(=O)N[C@H]1CC[C@H](Oc2cc(F)ccc2Nc2ncnc3sc(C(N)=O)c(C)c23)C1 [Example 230, 4-[2-((1S,3S)-3-Acetylamino-cyclopentyloxy)-4-fluoro-phenylamino]-5-methyl-thieno[2,3-d]pyrimidine-6-carboxylic acid amide] |
| 19 nM | CC(=O)N[C@H]1CC[C@H](Oc2cc(F)ccc2Nc2ncnc3sc(C(=O)NCC#CCN(C)C)c(C)c23)C1 [Example 233] |
| 28 nM | CNC(=O)CNC(=O)c1sc2ncnc(Nc3ccc(F)cc3O[C@@H]3CCC[C@H](OC)C3)c2c1C (racemic) [Example 95] |
| 13 nM | CC(=O)N(C)[C@H]1CC[C@H](Oc2cc(F)ccc2Nc2ncnc3sc(C(N)=O)c(C)c23)C1 [Example 240, 4-{2-[(1S,3S)-3-(Acetyl-methyl-amino)-cyclopentyloxy]-4-fluoro-phenylamino}-5-methyl-thieno[2,3-d]pyrimidine-6-carboxylic acid amide] |
| 40 nM | CC(=O)N[C@H]1C[C@H](Oc2cc(F)ccc2Nc2ncnc3sc(C(=O)NC4CCN(C)CC4)c(C)c23)C1 [Example 40] |
| 8 nM | Cc1c(C(N)=O)sc2ncnc(Nc3ccc(F)cc3O[C@@H]3CCC[C@@H]3O)c12 (relative stereo) [Example 224] |
| 14 nM | Cc1c(C(=O)NCC#CCN)sc2ncnc(Nc3ccc(F)cc3O[C@@H]3CCC[C@@H](O)C3)c12 (racemic) [Example 60] |
| 30 nM | Cc1c(C(N)=O)sc2ncnc(Nc3ccc(F)cc3O[C@@H]3CCCC[C@H]3O)c12 [Example 52, 4-[4-Fluoro-2-((1R,2R)-2-hydroxy-cyclohexyloxy)-phenylamino]-5-methyl-thieno[2,3-d]pyrimidine-6-carboxylic acid amide] |
| 95 nM | CC(=O)N[C@H]1CCC[C@@H]1Oc1cc(F)ccc1Nc1ncnc2sc(C(N)=O)c(C)c12 [Example 295, (1S,2S) 4-{2-[2-(Acetyl-amino)-cyclopentyloxy]-4-fluoro-phenylamino}-5-methyl thieno[2,3-d]pyrimidine-6-carboxylic acid amide] |
| 360 nM | COC(=O)c1sc2ncnc(Nc3ccc(F)cc3OC3CCC(=O)CC3)c2c1C [Example 20, Methyl 4-(4-fluoro-2-(4-oxocyclohexyloxy)phenylamino)-5-methylthieno[2,3-d]pyrimidine-6-carboxylate] |
| 7 nM | CC(=O)N(C)[C@H]1CC[C@H](Oc2cc(F)ccc2Nc2ncnc3sc(C(N)=O)c(C)c23)CC1 [Example 7] |

Second part, the molecule before the results:

| Molecule | IC50 |
| --- | --- |
| CO[C@H]1CCC[C@@H](Oc2cc(F)ccc2Nc2ncnc3sc(C(=O)NCCN4CCCCC4)c(C)c23)C1 (racemic) [Example 103] | 50 nM |
| CO[C@H]1CC[C@H](Oc2cc(F)ccc2Nc2ncnc3sc(C(=O)NCCCN4CCC(O)C4)c(C)c23)CC1 (stereo partly drawn) [Example 201, 4-[4-Fluoro-2-(trans-4-methoxy-cyclohexyloxy)-phenylamino]-5-methyl-thieno[2,3-d]pyrimidine-6-carboxylic acid [3-(3-hydroxy-pyrrolidin-1-yl)-propyl]-amide] | 16 nM |
| CO[C@H]1CCC[C@@H](Oc2ncccc2Nc2ncnc3sc(C(=O)NCC4COCCN4)c(C)c23)C1 (relative stereo) [Example 120] | 33 nM |
| COC(=O)c1sc2ncnc(Nc3ccc(F)cc3O[C@@H]3C[C@H](O)C[C@H](O)C3)c2c1C [Example 28.1] | 158 nM |
| Cc1c(C(=O)NCCCN2CCCC2)sc2ncnc(Nc3ccc(F)cc3O[C@H]3CC[C@H](O)CC3)c12 [Example 153, 4-[4-Fluoro-2-(trans-4-hydroxy-cyclohexyloxy)-phenylamino]-5-methyl-thieno[2,3-d]pyrimidine-6-carboxylic acid (3-pyrrolidin-1-yl-propyl)-amide] | 9 nM |
| COC1CCCC(Oc2ncccc2Nc2ncnc3sc(C(=O)NC4CC4N)c(C)c23)C1 (mixture of isomers) [Example 111] | 36 nM |
| COC1CCCC(Oc2ncccc2Nc2ncnc3sc(C(=O)NCC#N)c(C)c23)C1 (stereo not drawn) [Example 115] | 19 nM |
| COC1CCCC(Oc2cc(F)ccc2Nc2ncnc3sc(C(=O)NCc4cn(C)cn4)c(C)c23)C1 (stereo not drawn) [Example 107] | 18 nM |
| Cc1c(C(=O)O)sc2ncnc(Nc3ccc(F)cc3O[C@@H]3CCCC[C@@H]3O)c12 (single isomer, unassigned) [Example 258, 4-[4-fluoro-2-(cis-2-hydroxy-cyclohexyloxy)-phenylamino]-5-methyl-thieno[2,3-d]pyrimidine-6-carboxylic acid] | 110 nM |
| Cc1c(C(=O)NCCCN2CCCC2)sc2ncnc(Nc3cccnc3O[C@H]3CC[C@H](O)CC3)c12 [Example 268] | 14 nM |
| Cc1c(C(N)=O)sc2ncnc(Nc3cccnc3O[C@H]3CC[C@H](O)CC3)c12 [Example 204, 4-[2-(trans-4-Hydroxy-cyclohexyloxy)-pyridin-3-ylamino]-5-methyl-thieno[2,3-d]pyrimidine-6-carboxylic acid amide] | 5 nM |
| Cc1c(C(=O)NCC(C)O)sc2ncnc(Nc3ccc(F)cc3O[C@H]3CC[C@H](O)CC3)c12 (stereo partly drawn) [Example 171] | 43 nM |
| CC(=O)N[C@H]1C[C@H](Oc2cc(F)ccc2Nc2ncnc3sc(C(=O)NCC#CCN(C)C)c(C)c23)C1 [Example 245, 4-[2-(trans-3-Acetylamino-cyclobutoxy)-4-fluoro-phenylamino]-5-methyl-thieno[2,3-d]pyrimidine-6-carboxylic acid (4-dimethylamino-but-2-ynyl)-amide] | 39 nM |
| Cc1c(C(=O)NCCCN(C)C)sc2ncnc(Nc3ccc(F)cc3O[C@H]3CC[C@@H](O)CC3)c12 [Example 151, 4-[4-Fluoro-2-(cis-4-hydroxy-cyclohexyloxy)-phenylamino]-5-methyl-thieno[2,3-d]pyrimidine-6-carboxylic acid (3-dimethylamino-propyl)-amide] | 36 nM |
| CO[C@@H]1CCC[C@@H](Oc2ncccc2Nc2ncnc3sc(C(=O)NCC#CCN)c(C)c23)C1 (racemic) [Example 133] | 53 nM |
| COC1CCCC(Oc2cc(F)ccc2Nc2ncnc3sc(C(=O)NCC4COCCN4)c(C)c23)C1 (stereo not drawn) [Example 84] | 91 nM |
| CO[C@H]1CCC[C@@H](Oc2cc(F)ccc2Nc2ncnc3sc(C(=O)NCCCCO)c(C)c23)C1 (racemic) [Example 92] | 36 nM |
| CNC(=O)CNC(=O)c1sc2ncnc(Nc3cccnc3O[C@@H]3CCC[C@H](OC)C3)c2c1C (racemic) [Example 116] | 33 nM |
| CO[C@H]1CC[C@H](Oc2cc(F)ccc2Nc2ncnc3sc(C(=O)NCC(O)CN(C)C)c(C)c23)CC1 (stereo partly drawn) [Example 277] | 13 nM |
| 4-(4-fluoro-2-(cis-3-hydroxycyclopentyloxy)phenylamino)-5-methylthieno[2,3-d]pyrimidine-6-carboxamide and 4-(4-fluoro-2-(trans-3-hydroxycyclopentyloxy)phenylamino)-5-methylthieno[2,3-d]pyrimidine-6-carboxamide [Example 242] | 5 nM and 4 nM |
| CO[C@@H]1CCC[C@@H](Oc2ncccc2Nc2ncnc3sc(C(=O)NCCCN4CCCC4)c(C)c23)C1 (racemic) [Example 148] | 49 nM |
